Experimental data as given in US10294202B2, “Pyrrolidinones as herbicides” (FMC Corporation, priority 2013, dated 2019).

Key:
barnyardgrass [1] = test: Test A pre-/postemergence herbicide test; format: in vivo, Echinochloa crus-galli
Outline: (§1)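 Seeds in loam–sand blend received preemergence directed soil spray; separately, plants 2–10 cm at one- to two-leaf stage received postemergence spray, both with test chemicals in non-phytotoxic solvent with surfactant. After ~10 days in greenhouse, injury rated visually against untreated controls, 0 (no effect) to 100 (complete control).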

kochia = test: Test A pre-/postemergence herbicide test; format: in vivo, Kochia scoparia; conditions: for Plant response rating, Kochia: 0 to 100 scale
Outline: as §1

ragweed = test: Test A pre-/postemergence herbicide test; format: in vivo, Ambrosia elatior; conditions: for Plant response rating, Ragweed: 0 to 100 scale
Outline: as §1

ryegrass, Italian = test: Test A pre-/postemergence herbicide test; format: in vivo, Lolium multiflorum; conditions: for Plant response rating, Ryegrass, Italian: 0 to 100 scale
Outline: as §1

giant foxtail = test: Test A pre-/postemergence herbicide test; format: in vivo, Setaria faberii; conditions: for Plant response rating, Foxtail, Giant: 0 to 100 scale
Outline: as §1

pigweed = test: Test A pre-/postemergence herbicide test; format: in vivo, Amaranthus retroflexus; conditions: for Plant response rating, Pigweed: 0 to 100 scale
Outline: as §1

wheat = test: Test A pre-/postemergence herbicide test; format: in vivo, Triticum aestivum; conditions: Postemergence; for Plant response rating, Wheat: 125 g ai/ha, 0 to 100 scale, 0 no effect, 100 complete control; for Wheat plant response rating (0 to 100 scale, 0 is no effect, 100 is complete control): 500 g ai/ha
Outline: as §1

corn = test: Test A pre-/postemergence herbicide test; format: in vivo, Zea mays; conditions: Postemergence
Outline: as §1

blackgrass = test: Test A postemergence herbicide test; format: in vivo, Alopecurus myosuroides
Outline: (§2)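 Potted in loam soil/sand blend; postemergence application at 1–2 leaf stage (2–10 cm). Greenhouse ~10 d. Visual injury vs untreated, 0–100 scale; 100 = complete control.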

galium = test: Test A postemergence herbicide test; format: in vivo, Galium aparine; conditions: for Plant response rating, Galium: 125 g ai/ha, 0 to 100 scale, 0 no effect, 100 complete control; for Galium plant response rating (0 to 100 scale, 0 is no effect, 100 is complete control): 500 g ai/ha
Outline: as §2

rice = test: Test C flooded paddy test; format: in vivo, Oryza sativa; conditions: Flood
Outline: (§3)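 Visual ratings from 0, no effect, to 100, complete control, were made against untreated controls after 13–15 greenhouse days. Compounds had gone straight into paddy water 3 cm above the soil, kept at that depth, on 2-leaf-stage plants.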

sedge, umbrella = test: Test C flooded paddy test; format: in vivo, Cyperus difformis; conditions: Flood
Outline: as §3

ducksalad = test: Test C flooded paddy test; format: in vivo, Heteranthera limosa; conditions: Flood
Outline: as §3

barnyardgrass [2] = test: Test C flooded paddy test; format: in vivo, Echinochloa crus-galli; conditions: Flood
Outline: as §3

[3] = 125 g ai/ha, visual rating, 0 to 100 scale, 0 no effect, 100 complete control, approximately 10 days, preemergence
[4] = Postemergence, 125 g ai/ha, 0 to 100 scale, 0 no effect, 100 complete control
[5] = Postemergence, 500 g ai/ha, 0 to 100 scale (0 no effect, 100 complete control)
[6] = preemergence, 500 g ai/ha, 0 to 100 scale (0 no effect, 100 complete control)
[7] = 125 g ai/ha, visual rating, 0 no effect, 100 complete control, approximately 10 days, preemergence
[8] = Postemergence, 125 g ai/ha, 0 no effect, 100 complete control
[9] = 125 g ai/ha, 0 to 100 scale, 0 no effect, 100 complete control
[10] = 500 g ai/ha, 0 to 100 scale (0 no effect, 100 complete control)
[11] = 125 g ai/ha, scale of 0 to 100 where 0 is no effect and 100 is complete control, 13 to 15 days

Compound: O=C1NCC(c2cccc(C(F)(F)F)c2)C1C(=O)Nc1ncc(Cl)s1 (racemic) [Compound 113]
- Plant response rating, Barnyardgrass (barnyardgrass [1]; [3]): 0
- Plant response rating, Barnyardgrass (barnyardgrass [1]; [4]): 0
- Plant response rating, Barnyardgrass (barnyardgrass [1]; [5]): 0
- Plant response rating, Barnyardgrass (barnyardgrass [1]; [6]): 0
- Plant response rating, Kochia (kochia; [7]): 0
- Plant response rating, Kochia (kochia; [8]): 0
- Kochia plant response rating (0 to 100 scale, 0 is no effect, 100 is complete control) (kochia; Postemergence, 500 g ai/ha): 0
- Plant response rating, Kochia (kochia; preemergence, 500 g ai/ha): 0
- Plant response rating, Ragweed (ragweed; [7]): 0
- Plant response rating, Ragweed (ragweed; [8]): 0
- Ragweed plant response rating (0 to 100 scale, 0 is no effect, 100 is complete control) (ragweed; Postemergence, 500 g ai/ha): 0
- Plant response rating, Ragweed (ragweed; preemergence, 500 g ai/ha): 0
- Plant response rating, Ryegrass, Italian (ryegrass, Italian; [7]): 0
- Plant response rating, Ryegrass, Italian (ryegrass, Italian; [8]): 0
- Ryegrass, Italian plant response rating (0 to 100 scale, 0 is no effect, 100 is complete control) (ryegrass, Italian; Postemergence, 500 g ai/ha): 0
- Plant response rating, Ryegrass, Italian (ryegrass, Italian; preemergence, 500 g ai/ha): 0
- Plant response rating, Foxtail, Giant (giant foxtail; [7]): 0
- Plant response rating, Foxtail, Giant (giant foxtail; [8]): 0
- Foxtail, Giant plant response rating (0 to 100 scale, 0 is no effect, 100 is complete control) (giant foxtail; Postemergence, 500 g ai/ha): 0
- Plant response rating, Foxtail, Giant (giant foxtail; preemergence, 500 g ai/ha): 0
- Plant response rating, Pigweed (pigweed; [7]): 0
- Plant response rating, Pigweed (pigweed; [8]): 0
- Pigweed plant response rating (0 to 100 scale, 0 is no effect, 100 is complete control) (pigweed; Postemergence, 500 g ai/ha): 0
- Plant response rating, Pigweed (pigweed; preemergence, 500 g ai/ha): 0
- Plant response rating, Wheat (wheat): 0
- Wheat plant response rating (0 to 100 scale, 0 is no effect, 100 is complete control) (wheat): 0
- Plant response rating, Corn (corn; [9]): 0
- Plant response rating, Corn (corn; [10]): 0
- Plant response rating, Blackgrass (blackgrass; [9]): 0
- Plant response rating, Blackgrass (blackgrass; [10]): 0
- Plant response rating, Galium (galium): 0
- Galium plant response rating (0 to 100 scale, 0 is no effect, 100 is complete control) (galium): 0
- Plant response rating, Rice (rice; [11]): 0
- Plant response rating, Rice (rice; 250 g ai/ha, scale 0 to 100): 0
- Plant response rating, Rice (rice; 500 g ai/ha, scale 0 to 100): 0
- Plant response rating, Rice (rice; 1000 g ai/ha, scale 0 to 100): 0
- Plant response rating, Sedge, Umbrella (sedge, umbrella; [11]): 0
- Plant response rating, Sedge, Umbrella (sedge, umbrella; 250 g ai/ha, scale 0 to 100): 0
- Plant response rating, Sedge, Umbrella (sedge, umbrella; 500 g ai/ha, scale 0 to 100): 0
- Plant response rating, Sedge, Umbrella (sedge, umbrella; 1000 g ai/ha, scale 0 to 100): 0
- Plant response rating, Ducksalad (ducksalad; [11]): 20
- Plant response rating, Ducksalad (ducksalad; 250 g ai/ha, scale 0 to 100): 30
- Plant response rating, Ducksalad (ducksalad; 500 g ai/ha, scale 0 to 100): 50
- Plant response rating, Ducksalad (ducksalad; 1000 g ai/ha, scale 0 to 100): 70
- Plant response rating, Barnyardgrass (barnyardgrass [2]; [11]): 0
- Plant response rating, Barnyardgrass (barnyardgrass [2]; 250 g ai/ha, scale 0 to 100): 0
- Plant response rating, Barnyardgrass (barnyardgrass [2]; 500 g ai/ha, scale 0 to 100): 0
- Plant response rating, Barnyardgrass (barnyardgrass [2]; 1000 g ai/ha, scale 0 to 100): 0

Compound: O=C1NCC(c2cccc(C(F)(F)F)c2)C1C(=O)Nc1nc(C(F)(F)F)co1 (racemic) [Compound 114]
- Plant response rating, Barnyardgrass (barnyardgrass [1]; [3]): 20
- Plant response rating, Barnyardgrass (barnyardgrass [1]; [4]): 20
- Plant response rating, Barnyardgrass (barnyardgrass [1]; [5]): 60
- Plant response rating, Barnyardgrass (barnyardgrass [1]; [6]): 50
- Plant response rating, Kochia (kochia; [7]): 0
- Plant response rating, Kochia (kochia; [8]): 0
- Kochia plant response rating (0 to 100 scale, 0 is no effect, 100 is complete control) (kochia; Postemergence, 500 g ai/ha): 20
- Plant response rating, Kochia (kochia; preemergence, 500 g ai/ha): 0
- Plant response rating, Ragweed (ragweed; [7]): 0
- Plant response rating, Ragweed (ragweed; [8]): 0
- Ragweed plant response rating (0 to 100 scale, 0 is no effect, 100 is complete control) (ragweed; Postemergence, 500 g ai/ha): 0
- Plant response rating, Ragweed (ragweed; preemergence, 500 g ai/ha): 0
- Plant response rating, Ryegrass, Italian (ryegrass, Italian; [7]): 0
- Plant response rating, Ryegrass, Italian (ryegrass, Italian; [8]): 0
- Ryegrass, Italian plant response rating (0 to 100 scale, 0 is no effect, 100 is complete control) (ryegrass, Italian; Postemergence, 500 g ai/ha): 60
- Plant response rating, Ryegrass, Italian (ryegrass, Italian; preemergence, 500 g ai/ha): 30
- Plant response rating, Foxtail, Giant (giant foxtail; [7]): 20
- Plant response rating, Foxtail, Giant (giant foxtail; [8]): 40
- Foxtail, Giant plant response rating (0 to 100 scale, 0 is no effect, 100 is complete control) (giant foxtail; Postemergence, 500 g ai/ha): 70
- Plant response rating, Foxtail, Giant (giant foxtail; preemergence, 500 g ai/ha): 70
- Plant response rating, Pigweed (pigweed; [7]): 0
- Plant response rating, Pigweed (pigweed; [8]): 0
- Pigweed plant response rating (0 to 100 scale, 0 is no effect, 100 is complete control) (pigweed; Postemergence, 500 g ai/ha): 0
- Plant response rating, Pigweed (pigweed; preemergence, 500 g ai/ha): 0
- Plant response rating, Wheat (wheat): 0
- Wheat plant response rating (0 to 100 scale, 0 is no effect, 100 is complete control) (wheat): 20
- Plant response rating, Corn (corn; [9]): 0
- Plant response rating, Corn (corn; [10]): 20
- Plant response rating, Blackgrass (blackgrass; [9]): 20
- Plant response rating, Blackgrass (blackgrass; [10]): 30
- Plant response rating, Galium (galium): 0
- Galium plant response rating (0 to 100 scale, 0 is no effect, 100 is complete control) (galium): 20
- Plant response rating, Rice (rice; [11]): 0
- Plant response rating, Rice (rice; 250 g ai/ha, scale 0 to 100): 0
- Plant response rating, Rice (rice; 500 g ai/ha, scale 0 to 100): 0
- Plant response rating, Rice (rice; 1000 g ai/ha, scale 0 to 100): 0
- Plant response rating, Sedge, Umbrella (sedge, umbrella; [11]): 0
- Plant response rating, Sedge, Umbrella (sedge, umbrella; 250 g ai/ha, scale 0 to 100): 0
- Plant response rating, Sedge, Umbrella (sedge, umbrella; 500 g ai/ha, scale 0 to 100): 0
- Plant response rating, Sedge, Umbrella (sedge, umbrella; 1000 g ai/ha, scale 0 to 100): 0
- Plant response rating, Ducksalad (ducksalad; [11]): 20
- Plant response rating, Ducksalad (ducksalad; 250 g ai/ha, scale 0 to 100): 30
- Plant response rating, Ducksalad (ducksalad; 500 g ai/ha, scale 0 to 100): 70
- Plant response rating, Ducksalad (ducksalad; 1000 g ai/ha, scale 0 to 100): 80
- Plant response rating, Barnyardgrass (barnyardgrass [2]; [11]): 0
- Plant response rating, Barnyardgrass (barnyardgrass [2]; 250 g ai/ha, scale 0 to 100): 0
- Plant response rating, Barnyardgrass (barnyardgrass [2]; 500 g ai/ha, scale 0 to 100): 0
- Plant response rating, Barnyardgrass (barnyardgrass [2]; 1000 g ai/ha, scale 0 to 100): 0
